Results from PubChem BioAssay AID248 (DTP/NCI, 2004).
Inconclusive results and toxic doses are left out. Rule as the data show it: active = T/C of 150% or more; inactive = T/C below 125%.

Test system: L1210 leukemia ip in BDF1 mice, survival T/C
Experiment: NCI In Vivo Anticancer Drug Screen. Data for tumor model L1210 Leukemia (intraperitoneal) in B6D2F1 (BDF1) mice
Conditions: endpoint: mean survival time, higher = longer survival
Outline: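 Transplanted-tumor mice were given test agent; controls received vehicle only. Survival readings from the two groups were divided (treated over control).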

[1] = dose: 100.0 mg/kg/injection, schedule: Q01DX009 (ip), vehicle: Klucel (hydroxypropylcellulose) (HPC)
[2] = dose: 100.0 mg/kg/injection, schedule: Q04DX003 (ip), vehicle: Klucel (hydroxypropylcellulose) (HPC)
[3] = dose: 200.0 mg/kg/injection, schedule: Q01DX009 (ip), vehicle: Klucel (hydroxypropylcellulose) (HPC)
[4] = dose: 200.0 mg/kg/injection, schedule: Q04DX003 (ip), vehicle: Klucel (hydroxypropylcellulose) (HPC)
[5] = dose: 400.0 mg/kg/injection, schedule: Q01DX009 (ip), vehicle: Klucel (hydroxypropylcellulose) (HPC)
[6] = dose: 400.0 mg/kg/injection, schedule: Q04DX003 (ip), vehicle: Klucel (hydroxypropylcellulose) (HPC)
[7] = dose: 100.0 mg/kg/injection, schedule: Q04DX003 (ip), vehicle: saline
[8] = dose: 200.0 mg/kg/injection, schedule: Q04DX003 (ip), vehicle: saline
[9] = dose: 100.0 mg/kg/injection, schedule: Q01DX009 (ip), vehicle: saline with Tween-80
[10] = dose: 200.0 mg/kg/injection, schedule: Q01DX009 (ip), vehicle: saline with Tween-80

Measured: T/C

O=C(CN1C(=O)c2ccccc2C1=O)OC(c1ccccc1)c1ccccc1
inactive: [1] 102 % of control | [2] 98 % of control | [3] 104 % of control | [4] 96 % of control | [5] 104 % of control | [6] 96 % of control

O=C(NNCCO)C(O)C(O)C(O)C(O)CO (configuration not stated)
inactive: [7] 97 % of control | [8] 97 % of control | dose: 400.0 mg/kg/injection, schedule: Q04DX003 (ip), vehicle: saline 97 % of control

CCCNC(C)(C)C(SSSC(c1ccc(C(F)(F)F)cc1)C(C)(C)NCCC)c1ccc(C(F)(F)F)cc1 (configuration not stated)
inactive: [9] 96 % of control | [10] 100 % of control

CCOc1ccc(C2NC(=O)c3ccccc3N2)cc1 (configuration not stated)
inactive: [1] 104 % of control | [2] 91 % of control | [3] 97 % of control | [4] 98 % of control | [5] 97 % of control | [6] 98 % of control

CN1CCCC(C)(CN2c3ccccc3Sc3ccccc32)C1 (configuration not stated)
inactive: [7] 111 % of control | [8] 105 % of control

O=C(c1ccc(F)cc1)c1ccc2ccccc2c1C(=O)O
inactive: dose: 100.0 mg/kg/injection, schedule: Q04DX002 (ip), vehicle: Klucel (hydroxypropylcellulose) (HPC) 89 % of control | dose: 200.0 mg/kg/injection, schedule: Q04DX002 (ip), vehicle: Klucel (hydroxypropylcellulose) (HPC) 92 % of control | dose: 400.0 mg/kg/injection, schedule: Q04DX002 (ip), vehicle: Klucel (hydroxypropylcellulose) (HPC) 99 % of control

COC(=O)c1ccccc1N=NN(C)C1CCCCC1
inactive: dose: 100.0 mg/kg/injection, schedule: Q01DX009 (ip), vehicle: other 106 % of control | dose: 200.0 mg/kg/injection, schedule: Q01DX009 (ip), vehicle: other 87 % of control

CCC(C)C1(C)OC1C(=O)OC (configuration not stated)
inactive: [9] 93 % of control | dose: 100.0 mg/kg/injection, schedule: Q04DX003 (ip), vehicle: saline with Tween-80 100 % of control | [10] 86 % of control | dose: 200.0 mg/kg/injection, schedule: Q04DX003 (ip), vehicle: saline with Tween-80 101 % of control | dose: 400.0 mg/kg/injection, schedule: Q04DX003 (ip), vehicle: saline with Tween-80 97 % of control

COc1ccc(-n2c(=O)c(N=Nc3ccc(Cl)cc3)c(O)n(-c3ccccc3OC)c2=S)cc1
inactive: dose: 50.0 mg/kg/injection, schedule: Q01DX001 (ip), vehicle: Klucel (hydroxypropylcellulose) (HPC) 110 % of control | dose: 100.0 mg/kg/injection, schedule: Q01DX001 (ip), vehicle: Klucel (hydroxypropylcellulose) (HPC) 102 % of control | dose: 200.0 mg/kg/injection, schedule: Q01DX001 (ip), vehicle: Klucel (hydroxypropylcellulose) (HPC) 100 % of control
